SMILES strings stand for the structures.

Experiment [1] can be described thus: High fat diet (HFD) induced body weight gain study in mice. Type of experiment: in vivo, C57BL/6J mice. The settings on record: Mean ± S.E.M. The method, then: Male C57BL/6J mice (in-house; Central Animal Facility, Piramal Healthcare Limited, Goregaon, Mumbai, Maharashtra, India) were acclimatized with HFD (60% Kcal, D12492, Research Diets, USA) for two weeks. […] Orlistat (Biocon, India) was used as the standard drug and was administered orally at a dose of 15 mg/kg body weight, twice daily. A separate group of ten mice was fed a low fat diet (LFD, 10% kcal, D12450B, Research Diet, USA) as a normal control. Vehicle was administered to the HFD and LFD control groups at dose of 10 mL/kg body weight. The treatments were continued for a period of sixty days. Body weight and feed intake were monitored daily. The % change in body weight (% increase in body weight from day 1) and the cumulative feed intake data was calculated. On day sixtyone, blood samples (˜200 μL/mice) were collected in heparinised (50 IU/mL) micro-centrifuge tubes under isoflurane anesthesia. Plasma was separated by centrifugation at 10000 rpm at 4° C. for estimation of various plasma biochemistry parameters. The biochemistry analysis was performed on BS-400 autoanalyzer (Mindray, China). […] All the data was analyzed for statistical significance by one-way ANOVA followed by Dunnet's post-hoc test and values of P<0.05 were considered as significant. […]

Another experiment has as its target T1, human DGAT-1 enzyme (Homo sapiens, UniProt O75907).
T1 construct: host or cells: Sf9 insect cells (baculovirus, Bac-to-Bac); microsomal fraction
T1 sequence (O75907 1-488): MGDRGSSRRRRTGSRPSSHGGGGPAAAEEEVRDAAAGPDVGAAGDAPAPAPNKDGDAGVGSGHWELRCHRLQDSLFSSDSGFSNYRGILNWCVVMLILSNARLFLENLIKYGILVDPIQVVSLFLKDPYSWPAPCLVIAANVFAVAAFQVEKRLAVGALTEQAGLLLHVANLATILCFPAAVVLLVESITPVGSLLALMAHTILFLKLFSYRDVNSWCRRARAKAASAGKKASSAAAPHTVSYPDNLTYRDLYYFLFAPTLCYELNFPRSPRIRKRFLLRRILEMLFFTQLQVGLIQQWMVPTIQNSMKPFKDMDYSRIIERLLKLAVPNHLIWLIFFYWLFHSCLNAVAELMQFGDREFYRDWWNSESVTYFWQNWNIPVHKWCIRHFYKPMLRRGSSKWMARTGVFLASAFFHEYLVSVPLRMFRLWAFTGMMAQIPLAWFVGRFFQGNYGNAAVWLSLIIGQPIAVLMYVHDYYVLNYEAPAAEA
The experiment can be described thus: hDGAT-1 inhibition assay (microsomes from Sf9 cells, [14C]oleoyl-CoA incorporation). Particulars: 50 μg/mL. Type of experiment: biochemical.

Another experiment concerns the target T2, SCD-1 enzyme (Rattus norvegicus, UniProt P07308).
T2 construct: Male Sprague-Dawley rats (150-175 g) were fasted for two days and then fed on low fat diet for three days to induce SCD-1 activity; from tissue; host or cells: liver microsomes of male Sprague-Dawley rats
T2 sequence (P07308 1-358): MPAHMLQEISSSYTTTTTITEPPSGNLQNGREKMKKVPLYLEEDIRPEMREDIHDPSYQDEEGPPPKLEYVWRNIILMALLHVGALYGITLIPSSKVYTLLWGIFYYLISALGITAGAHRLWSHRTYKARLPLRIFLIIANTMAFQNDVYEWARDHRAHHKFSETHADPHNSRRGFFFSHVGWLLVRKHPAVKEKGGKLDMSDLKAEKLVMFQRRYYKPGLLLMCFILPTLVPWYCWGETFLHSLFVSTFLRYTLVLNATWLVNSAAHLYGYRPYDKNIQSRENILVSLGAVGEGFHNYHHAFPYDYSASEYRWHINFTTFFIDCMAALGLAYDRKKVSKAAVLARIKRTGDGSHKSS
The experiment can be described thus: SCD-1 inhibition assay (rat liver microsomes, 3H2O release). The experiment is classed as biochemical. The settings on record: 50 μg/mL. The protocol:
The assay was carried out according to the method described in reference, European Journal of Pharmacology, 618, 28-36, 2009, the disclosure of which is incorporated by reference for the teaching of the assay.
The SCD-1 enzyme was prepared from rat liver microsomes as described in PCT Publication Application WO2008/074835A1, the disclosure of which is incorporated herein by reference for the teaching of the assay.
Male Sprague-Dawley rats (150-175 g) were fasted for two days and then fed on low fat diet for three days to induce SCD-1 activity. The rats were then sacrificed and their livers were removed and placed on ice. The livers were finely chopped with scissors and then homogenized using a Polytron homogenizer in a homogenization buffer (150 mM KCl, 250 mM sucrose, 50 mM tris-HCl, pH 7.5, 5 mM EDTA, and 1.5 mM reduced glutathione) at 4° C. The homogenate was centrifuged at 1500×g for 20 min at 4° C. […]
The microsomes (62.5 μg) were treated with the test sample for 15 min. […] The filtrate containing ^3H2O was transferred to scintillation vials containing 4 mL of scintillation fluid and the cpm counts were measured using a liquid scintillation counter. The % inhibition was calculated with reference to the vehicle control.
The dose response was determined at concentrations of 25 μg/mL, 50 μg/mL and 100 μg/mL by serially diluting stock solutions of Extract of Example 2.

Experimental for human DGAT-1 enzyme: The DGAT-1 assay was designed using human DGAT-1 enzyme over expressed in Sf9 cell-line as described in the reference, European Journal of Pharmacology, 650, 663-672, 2011, the disclosure of which is incorporated by reference for the teaching of the assay.
Enzyme was diluted to a working concentration of 1 mg/mL in hDGAT-1 assay buffer, 2.5 μL of the working enzyme stock was used in hDGAT-1 assay (final concentration 25 μg/mL).
The test samples were prepared as follows. […] The working stock was prepared in hDGAT-1 assay buffer. 10 μL of working stock was added into 100 μL of assay mixture to obtain the final concentration of extracts at 50 μg/mL.
60 μL of substrate mix (as described above) was added to a total assay volume of 100 μL. The reaction was started by adding 2.5 μg hDGAT-1 containing microsomal protein and was incubated at 37° C. for 10 min. The reaction was stopped by adding 300 μL of alkaline ethanol stop solution mix (AESSM). […] 250 μL of the upper heptane was added into 4 mL of scintillation fluid and measured using a liquid scintillation counter (Packard; 1600CA) as disintegration per min (dpm) counts. The percentage inhibition was calculated with respect to the vehicle.

As for `CCCCCCCCCCC[C@@H](C[C@@H]1OC(=O)[C@H]1CCCCCC)OC(=O)[C@H](CC(C)C)NC=O` [Orlistat], the “Body weight (g, day 0)” value in experiment [1] (day 0 (baseline)) was 26.4 ± 0.4 g. In experiment [1] (day 60, Extract 500 mg/kg orally once daily, Orlistat 15 mg/kg orally twice daily), the “Body weight (g, day 60)” value is 30.9 ± 0.9 g.
`C[C@@H]1O[C@@H](Oc2cc3c(=O)oc4c(O)c(O)cc5c(=O)oc(c2O)c3c45)[C@H](O)[C@H](O)[C@H]1O` [The compound 1, Ellagic acid, 4-O-alpha-L-rhamnopyranoside]: at human DGAT-1 enzyme, the “activity in the hDGAT-1 inhibition assay (conclusion)” value is given as “active”. Moreover, the results for the inhibition at 50 µg/mL on human DGAT-1 enzyme (Table 1) and against SCD-1 enzyme (Table 3) were 85% and 74.2%, respectively. Also, on SCD-1 enzyme, the “activity in the SCD-1 inhibition assay (conclusion)” value is on record as “active”.

What is called inhibition is the drop in the measured response relative to a control, in per cent. A high value points to a strong effect.

For the origin of these results see patent publication US20150290265A1, “COMPOSITION FOR TREATING METABOLIC DISORDERS” (PIRAMAL ENTERPRISES LIMITED, priority 2012, published 2015).
